Measurements published in patent publication US8895590B2, “Epothilone compounds, preparation method and use thereof” (priority 2010, dated 2014).
Read-outs that look alike come from different tables or passages of the source.

What was measured:
Test in all cases: Sulforhodamine B (SRB) cytotoxicity test
Type in all cases: cell-based
MCF-7 (Breast Cancer) = details: cells cultured 3 days with compound, read-out: Half Inhibitory Concentration for Tumor Cell Growth (IC50)
Description: (§1) Sulforhodamine B (SRB) test was used for screening the selective compounds of the present invention according to their anti-tumor activity on four different tumor cell lines. In SRB analysis, the cultured cells were trypsinized, counted and diluted to a suitable concentration (5000-7500 cells/100 μl) with a culture medium. The cells were inoculated into a 96-well microtiter plate at 100 μl suspension/well. After 20 hours, the test compounds which were diluted in the culture medium to 2×1000 nM˜2×0.001 nM were added to each well. The cells were then cultured for 3 days, fixed with 100 μl 10% trichloroacetic acid at 4° C. for 1 hour, and then stained with 0.2% SRB/1% acetic acid at room temperature for 20 min. The unbound dye was rinsed with 1% acetic acid. The bound dye was dissolved with 200 μl 10 mM Tris-base. The amount of the bound dye was calculated from OD value detected at the wavelength of 515 nm. The amount of the bound dye was in direct proportion to the total amount of cell proteins. The data was analyzed with Kaleida Graph program, and the half inhibitory concentration (IC50) was calculated. Epothilones D and B were detected in parallel for Comparison. The results of the cytotoxicity experiments on the selected test compounds of the present invention are shown as follows. The other compounds of the present invention may also be detected with a similar method.

[1] = tested on: NCI/ADR-RES (MDR Breast Cancer); details: cells cultured 3 days with compound, read-out: Half Inhibitory Concentration for Tumor Cell Growth (IC50)
Description: as §1

NCl-H460 (Lung Cancer) = details: cells cultured 3 days with compound, read-out: Half Inhibitory Concentration for Tumor Cell Growth (IC50)
Description: as §1

SF-268 (Glioma) = details: cells cultured 3 days with compound, read-out: Half Inhibitory Concentration for Bacterial Growth (IC50)
Description: as §1

Compound	IC50 (MCF-7 (Breast Cancer)) [nM]	IC50 [1] [nM]	IC50 (NCl-H460 (Lung Cancer)) [nM]	IC50 (SF-268 (Glioma)) [nM]	IC50 (MCF-7 (Breast Cancer); Homo sapiens, MCF7, 72 h) [nM]	IC50 ([1]; Homo sapiens, 72 h) [nM]	IC50 (NCl-H460 (Lung Cancer); 72 h) [nM]	IC50 (SF-268 (Glioma); Homo sapiens, 72 h) [nM]
14-NH2 Epothilone D [II-A]	7	12	7	6				
C/C1=C/C[C@@H](/C(C)=C/c2csc(C)n2)OC(=O)C[C@H](O)C(C)(C)C(=O)[C@H](C)[C@@H](O)[C@@H](C)CCC1 [Epo D, Epothilone D, reference compound]	13	42	17	18				
COC1/C=C(/C)CCC[C@H](C)[C@H](O)[C@@H](C)C(=O)C(C)[C@@H](O)CC(=O)O[C@@H]1/C(C)=C/c1csc(C)n1 (stereo partly drawn) [II-N]					2	7	2	3
C/C(=C\c1csc(C)n1)[C@@H]1C[C@@H]2O[C@]2(C)CCC[C@H](C)[C@H](O)[C@@H](C)C(=O)C(C)(C)[C@@H](O)CC(=O)O1 [Epo B, Epothilone B, reference compound]	0.5	5	0.7	0.8				
14-N(CH3)2 Epothilone B [II-L]	0.05	0.1	0.5	1				
14-NH2 Epothilone B [II-B]	0.1	0.5	0.2	0.2				
